Laboratory results from the NIST ThermoML archive (doi:10.1021/je3007474).
Numbers after ± are expanded uncertainties.

Assay: xn = mol fraction of the nth substance listed
Details: 101 kPa, Liquid; for viscosity: Falling or rolling sphere viscometry; for mass density: Vibrating tube method

CCCCn1cc[n+](C)c1C.F[B-](F)(F)F [1-butyl-2,3-dimethylimidazolium tetrafluoroborate] + CC#N
Details	mass density [kg/m3]	viscosity [mPa·s]
298.15 K, x1 = 0.1118	919.74 ± 0.17	1.045 ± 0.013
298.15 K, x1 = 0.1536	957.71 ± 0.15	–
298.15 K, x1 = 0.2247	1008.5 ± 0.14	2.637 ± 0.034
298.15 K, x1 = 0.3784	1079.62 ± 0.18	8.933 ± 0.12
298.15 K, x1 = 0.4601	1104.79 ± 0.16	–
298.15 K, x1 = 0.5515	1127.21 ± 0.15	32.3 ± 0.41
298.15 K, x1 = 0.666	1149.45 ± 0.13	67.72 ± 0.96
298.15 K, x1 = 0.7581	1163.71 ± 0.12	143.9 ± 5.1
298.15 K, x1 = 0.8423	1174.52 ± 0.12	241.4 ± 13
298.15 K, x1 = 1	1193.19 ± 0.12	650 ± 56
303.15 K, x1 = 0.1118	915.06 ± 0.17	0.982 ± 0.012
303.15 K, x1 = 0.1536	953.22 ± 0.15	–
303.15 K, x1 = 0.2247	1004.26 ± 0.14	2.438 ± 0.031
303.15 K, x1 = 0.3784	1075.69 ± 0.19	7.746 ± 0.1
303.15 K, x1 = 0.4601	1100.98 ± 0.16	–
303.15 K, x1 = 0.5515	1123.51 ± 0.15	26.37 ± 0.33
303.15 K, x1 = 0.666	1145.88 ± 0.13	52.92 ± 0.56
303.15 K, x1 = 0.7581	1160.23 ± 0.12	108.2 ± 2.8
303.15 K, x1 = 0.8423	1171.09 ± 0.12	176.3 ± 7.5
303.15 K, x1 = 1	1189.8 ± 0.12	447 ± 33
313.15 K, x1 = 0.1118	905.7 ± 0.17	0.873 ± 0.011
313.15 K, x1 = 0.1536	944.25 ± 0.15	–
313.15 K, x1 = 0.2247	995.79 ± 0.14	2.071 ± 0.026
313.15 K, x1 = 0.3784	1067.89 ± 0.19	5.997 ± 0.077
313.15 K, x1 = 0.4601	1093.41 ± 0.16	–
313.15 K, x1 = 0.5515	1116.15 ± 0.14	18.33 ± 0.23
313.15 K, x1 = 0.666	1138.75 ± 0.12	34.34 ± 0.43
313.15 K, x1 = 0.7581	1153.24 ± 0.12	65.14 ± 0.85
313.15 K, x1 = 0.8423	1164.22 ± 0.11	102.2 ± 2.5
313.15 K, x1 = 1	1183.02 ± 0.11	232.9 ± 12
323.15 K, x1 = 0.1118	896.31 ± 0.18	0.783 ± 0.01
323.15 K, x1 = 0.1536	935.27 ± 0.15	–
323.15 K, x1 = 0.2247	987.34 ± 0.14	1.781 ± 0.022
323.15 K, x1 = 0.3784	1060.12 ± 0.19	4.784 ± 0.061
323.15 K, x1 = 0.4601	1085.88 ± 0.16	–
323.15 K, x1 = 0.5515	1108.85 ± 0.14	13.36 ± 0.17
323.15 K, x1 = 0.666	1131.67 ± 0.12	23.63 ± 0.3
323.15 K, x1 = 0.7581	1146.32 ± 0.11	42.26 ± 0.52
323.15 K, x1 = 0.8423	1157.4 ± 0.11	63.15 ± 0.79
323.15 K, x1 = 1	1176.38 ± 0.11	132.8 ± 4.4
333.15 K, x1 = 0.1118	886.87 ± 0.18	0.714 ± 0.009
333.15 K, x1 = 0.1536	926.27 ± 0.16	–
333.15 K, x1 = 0.2247	978.89 ± 0.14	1.551 ± 0.02
333.15 K, x1 = 0.3784	1052.37 ± 0.19	3.914 ± 0.05
333.15 K, x1 = 0.4601	1078.37 ± 0.16	–
333.15 K, x1 = 0.5515	1101.56 ± 0.14	10.11 ± 0.13
333.15 K, x1 = 0.666	1124.62 ± 0.12	17.06 ± 0.21
333.15 K, x1 = 0.7581	1139.41 ± 0.11	28.89 ± 0.36
333.15 K, x1 = 0.8423	1150.59 ± 0.11	41.76 ± 0.52
333.15 K, x1 = 1	1169.82 ± 0.11	81.53 ± 1.5
343.15 K, x1 = 0.1118	877.39 ± 0.18	0.572 ± 0.007
343.15 K, x1 = 0.1536	917.25 ± 0.16	–
343.15 K, x1 = 0.2247	970.44 ± 0.15	1.369 ± 0.017
343.15 K, x1 = 0.3784	1044.64 ± 0.18	3.264 ± 0.041
343.15 K, x1 = 0.4601	1070.89 ± 0.16	–
343.15 K, x1 = 0.5515	1094.31 ± 0.14	7.897 ± 0.099
343.15 K, x1 = 0.666	1117.6 ± 0.12	12.79 ± 0.16
343.15 K, x1 = 0.7581	1132.51 ± 0.11	20.7 ± 0.26
343.15 K, x1 = 0.8423	1143.79 ± 0.11	30 ± 0.37
343.15 K, x1 = 1	1163.26 ± 0.11	53.99 ± 0.56

CCCCn1cc[n+](C)c1C.F[B-](F)(F)F [1-butyl-2,3-dimethylimidazolium tetrafluoroborate] + C[S+](C)[O-]
Details	mass density [kg/m3]	viscosity [mPa·s]
298.15 K, x1 = 0.138	1128.27 ± 0.09	5.197 ± 0.064
298.15 K, x1 = 0.2292	1142.83 ± 0.1	9.384 ± 0.12
298.15 K, x1 = 0.3151	1153.4 ± 0.1	16.2 ± 0.2
298.15 K, x1 = 0.4079	1162.44 ± 0.11	28.31 ± 0.36
298.15 K, x1 = 0.5334	1172.17 ± 0.11	60.17 ± 0.72
298.15 K, x1 = 0.6374	1178.33 ± 0.11	108.3 ± 2.8
298.15 K, x1 = 0.7004	1181.74 ± 0.11	160.1 ± 6.3
298.15 K, x1 = 0.7952	1185.94 ± 0.11	–
298.15 K, x1 = 0.8785	1189.03 ± 0.12	370.4 ± 25
298.15 K, x1 = 1	1193.19 ± 0.12	650 ± 56
303.15 K, x1 = 0.138	1123.85 ± 0.09	4.594 ± 0.057
303.15 K, x1 = 0.2292	1138.65 ± 0.1	8.077 ± 0.1
303.15 K, x1 = 0.3151	1149.37 ± 0.1	13.58 ± 0.17
303.15 K, x1 = 0.4079	1158.58 ± 0.11	23.32 ± 0.29
303.15 K, x1 = 0.5334	1168.48 ± 0.11	47.09 ± 0.59
303.15 K, x1 = 0.6374	1174.75 ± 0.11	82.19 ± 1.5
303.15 K, x1 = 0.7004	1178.22 ± 0.11	119.4 ± 3.5
303.15 K, x1 = 0.7952	1182.45 ± 0.11	–
303.15 K, x1 = 0.8785	1185.53 ± 0.11	263.2 ± 15
303.15 K, x1 = 1	1189.8 ± 0.12	447 ± 33
313.15 K, x1 = 0.138	1115.07 ± 0.09	3.654 ± 0.045
313.15 K, x1 = 0.2292	1130.35 ± 0.09	6.142 ± 0.076
313.15 K, x1 = 0.3151	1141.4 ± 0.1	9.873 ± 0.12
313.15 K, x1 = 0.4079	1150.89 ± 0.1	15.99 ± 0.2
313.15 K, x1 = 0.5334	1161.12 ± 0.11	30.51 ± 0.38
313.15 K, x1 = 0.6374	1167.61 ± 0.11	50.32 ± 0.51
313.15 K, x1 = 0.7004	1171.2 ± 0.11	70.58 ± 1
313.15 K, x1 = 0.7952	1175.55 ± 0.11	–
313.15 K, x1 = 0.8785	1178.68 ± 0.11	144.9 ± 5.2
313.15 K, x1 = 1	1183.02 ± 0.11	232.9 ± 12
323.15 K, x1 = 0.138	1106.3 ± 0.08	2.981 ± 0.037
323.15 K, x1 = 0.2292	1122.07 ± 0.09	4.831 ± 0.06
323.15 K, x1 = 0.3151	1133.47 ± 0.1	7.481 ± 0.093
323.15 K, x1 = 0.4079	1143.24 ± 0.1	11.64 ± 0.15
323.15 K, x1 = 0.5334	1153.77 ± 0.1	20.96 ± 0.26
323.15 K, x1 = 0.6374	1160.48 ± 0.1	33.05 ± 0.41
323.15 K, x1 = 0.7004	1164.2 ± 0.11	44.88 ± 0.56
323.15 K, x1 = 0.7952	1168.71 ± 0.11	–
323.15 K, x1 = 0.8785	1171.96 ± 0.11	86.55 ± 1.7
323.15 K, x1 = 1	1176.38 ± 0.11	132.8 ± 4.4
333.15 K, x1 = 0.138	1097.56 ± 0.08	2.49 ± 0.031
333.15 K, x1 = 0.2292	1113.83 ± 0.09	3.906 ± 0.048
333.15 K, x1 = 0.3151	1125.56 ± 0.09	5.851 ± 0.072
333.15 K, x1 = 0.4079	1135.62 ± 0.1	8.806 ± 0.11
333.15 K, x1 = 0.5334	1146.46 ± 0.1	15.18 ± 0.19
333.15 K, x1 = 0.6374	1153.38 ± 0.1	22.96 ± 0.28
333.15 K, x1 = 0.7004	1157.22 ± 0.1	30.3 ± 0.37
333.15 K, x1 = 0.7952	1161.88 ± 0.1	–
333.15 K, x1 = 0.8785	1165.23 ± 0.11	55.64 ± 0.59
333.15 K, x1 = 1	1169.82 ± 0.11	81.53 ± 1.5
343.15 K, x1 = 0.138	1088.84 ± 0.08	2.115 ± 0.026
343.15 K, x1 = 0.2292	1105.61 ± 0.09	3.23 ± 0.04
343.15 K, x1 = 0.3151	1117.7 ± 0.09	4.708 ± 0.058
343.15 K, x1 = 0.4079	1128.03 ± 0.1	6.868 ± 0.085
343.15 K, x1 = 0.5334	1139.19 ± 0.1	11.46 ± 0.14
343.15 K, x1 = 0.6374	1146.31 ± 0.1	16.7 ± 0.21
343.15 K, x1 = 0.7004	1150.26 ± 0.1	21.53 ± 0.27
343.15 K, x1 = 0.7952	1155.06 ± 0.1	–
343.15 K, x1 = 0.8785	1158.52 ± 0.1	37.74 ± 0.46
343.15 K, x1 = 1	1163.26 ± 0.11	53.99 ± 0.56
353.15 K, x1 = 0.138	1080.12 ± 0.08	1.826 ± 0.022
353.15 K, x1 = 0.2292	1097.41 ± 0.08	2.724 ± 0.034
353.15 K, x1 = 0.3151	1109.86 ± 0.09	3.873 ± 0.048
353.15 K, x1 = 0.4079	1120.49 ± 0.09	5.501 ± 0.068
353.15 K, x1 = 0.5334	1131.96 ± 0.1	8.897 ± 0.11
353.15 K, x1 = 0.6374	1139.27 ± 0.1	12.73 ± 0.16
353.15 K, x1 = 0.7004	1143.34 ± 0.1	16.03 ± 0.2
353.15 K, x1 = 0.7952	1148.27 ± 0.1	–
353.15 K, x1 = 0.8785	1151.83 ± 0.1	26.75 ± 0.33
353.15 K, x1 = 1	1156.71 ± 0.1	37.13 ± 0.46
